Test results taken from patent US20080161366A1, “AMINOALKYL SUBSTITUTED ARYL SULFAMIDE DERIVATIVES AND METHODS OF THEIR USE” (Wyeth, priority 2006, published 2008).
Counter-ions that a name gives are not always drawn.

Molecular target: human norepinephrine transporter (hNET) (Homo sapiens, UniProt P23975)
Test: hNET uptake, Protocol B: cell based norepinephrine reuptake assay using recombinant hNET (MDCK-Net6 cells)
Conditions: NE uptake (Protocol B) IC50 (nM), MDCK-Net6 cells, 3H-NE 16 nM

human norepinephrine transporter (hNET), sequence (P23975 whole entry): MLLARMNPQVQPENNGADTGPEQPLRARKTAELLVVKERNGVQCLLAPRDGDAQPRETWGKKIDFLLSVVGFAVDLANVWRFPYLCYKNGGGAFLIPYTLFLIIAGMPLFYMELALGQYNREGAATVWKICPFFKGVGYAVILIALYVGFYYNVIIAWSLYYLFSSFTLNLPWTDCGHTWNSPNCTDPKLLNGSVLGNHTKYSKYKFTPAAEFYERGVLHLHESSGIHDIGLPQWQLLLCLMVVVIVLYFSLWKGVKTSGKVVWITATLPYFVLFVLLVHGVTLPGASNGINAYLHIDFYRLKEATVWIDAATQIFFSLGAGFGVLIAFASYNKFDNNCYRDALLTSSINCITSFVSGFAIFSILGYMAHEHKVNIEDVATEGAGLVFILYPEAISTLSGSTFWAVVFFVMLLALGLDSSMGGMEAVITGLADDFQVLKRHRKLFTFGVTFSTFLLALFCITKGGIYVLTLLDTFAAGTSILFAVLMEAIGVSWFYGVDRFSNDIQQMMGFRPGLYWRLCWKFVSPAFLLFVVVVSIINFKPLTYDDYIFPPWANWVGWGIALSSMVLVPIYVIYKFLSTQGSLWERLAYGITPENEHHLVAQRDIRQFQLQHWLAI

IC50 | Compound
20.5 nM | CNCCCN1c2ccccc2N(c2ccc(Cl)cc2)S1(=O)=O [Example 1, 3-[3-(4-chlorophenyl)-2,2-dioxido-2,1,3-benzothiadiazol-1(3H)-yl]-N-methylpropan-1-amine]
2.63 nM | CNCCCN1c2ccccc2N(c2ccccc2)S1(=O)=O [Example 5, 3-(2,2-dioxido-3-phenyl-2,1,3-benzothiadiazol-1(3H)-yl)-N-methylpropan-1-amine]
6.87 nM | CNCCCN1c2ccccc2N(c2ccc(F)cc2)S1(=O)=O [Example 6, 3-[3-(4-fluorophenyl)-2,2-dioxido-2,1,3-benzothiadiazol-1(3H)-yl]-N-methylpropan-1-amine]
1780 nM | CNCCCN1c2ccccc2N(c2ccc(OC)cc2)S1(=O)=O [Example 7, 3-[3-(4-methoxyphenyl)-2,2-dioxido-2,1,3-benzothiadiazol-1(3H)-yl]-N-methylpropan-1-amine]
35.7 nM | CNCCCN1c2ccccc2N(c2ccc(C)cc2)S1(=O)=O [Example 8, N-methyl-3-[3-(4-methylphenyl)-2,2-dioxido-2,1,3-benzothiadiazol-1(3H)-yl]propan-1-amine]
12.6 nM | CNCCCN1c2ccccc2N(c2ccccc2OC)S1(=O)=O [Example 9, 3-[3-(2-methoxyphenyl)-2,2-dioxido-2,1,3-benzothiadiazol-1(3H)-yl]-N-methylpropan-1-amine]
12.2 nM | CNCCCN1c2ccccc2N(c2cccc(F)c2)S1(=O)=O [Example 12, 3-[3-(3-fluorophenyl)-2,2-dioxido-2,1,3-benzothiadiazol-1(3H)-yl]-N-methylpropan-1-amine]
2620 nM | CNCCCN1c2ccccc2N(c2ccc3ccccc3c2)S1(=O)=O [Example 14, N-methyl-3-[3-(2-naphthyl)-2,2-dioxido-2,1,3-benzothiadiazol-1(3H)-yl]propan-1-amine]
96.2 nM | CNCCCN1c2ccccc2N(c2cccc(C)c2)S1(=O)=O [Example 15, N-methyl-3-[3-(3-methylphenyl)-2,2-dioxido-2,1,3-benzothiadiazol-1(3H)-yl]propan-1-amine]
0.3 nM | CNCCCCN1c2ccccc2N(c2ccccc2)S1(=O)=O [Example 18, 4-(2,2-dioxido-3-phenyl-2,1,3-benzothiadiazol-1(3H)-yl)-N-methylbutan-1-amine]
146 nM | CNCCCN1c2cnccc2N(c2ccccc2)S1(=O)=O [Example 25, 3-(2,2-dioxido-1-phenyl[1,2,5]thiadiazolo[3,4-c]pyridin-3(1H)-yl)-N-methylpropan-1-amine]
11.7 nM | CNCCCN1c2ccccc2N(c2ncccc2C)S1(=O)=O [Example 27, N-methyl-3-[3-(3-methylpyridin-2-yl)-2,2-dioxido-2,1,3-benzothiadiazol-1(3H)-yl]propan-1-amine hydrochloride]
282 nM | CNCCCN1c2ccccc2N(c2cnccc2C)S1(=O)=O [Example 33, N-methyl-3-[3-(4-methylpyridin-3-yl)-2,2-dioxido-2,1,3-benzothiadiazol-1(3H)-yl]propan-1-amine hydrochloride]
20.6 nM | CNCCCN1c2cc(F)ccc2N(c2ccccc2)S1(=O)=O [Example 35, 3-(6-fluoro-2,2-dioxido-3-phenyl-2,1,3-benzothiadiazol-1(3H)-yl)-N-methylpropan-1-amine]
13.9 nM | CNCCCN1c2ccc(C)cc2N(c2ccccc2)S1(=O)=O [Example 38, N-methyl-3-(5-methyl-2,2-dioxido-3-phenyl-2,1,3-benzothiadiazol-1(3H)-yl)propan-1-amine]

Further lines, the compound ahead of its results:

Compound | IC50
CNCCCN1c2ccccc2N(c2cccc3ccccc23)S1(=O)=O [Example 13, N-methyl-3-[3-(1-naphthyl)-2,2-dioxido-2,1,3-benzothiadiazol-1(3H)-yl]propan-1-amine] | 534 nM
CNCCCN1c2ccccc2N(c2ccccc2C)S1(=O)=O [Example 16, N-methyl-3-[3-(2-methylphenyl)-2,2-dioxido-2,1,3-benzothiadiazol-1(3H)-yl]propan-1-amine] | 7.06 nM
CNCCCN1c2ccccc2N(c2cccc(OC)c2)S1(=O)=O [Example 17, 3-[3-(3-methoxyphenyl)-2,2-dioxido-2,1,3-benzothiadiazol-1(3H)-yl]-N-methylpropan-1-amine] | 10.8 nM
CNCCCN1c2cccnc2N(c2ccccc2)S1(=O)=O [Example 24, 3-(2,2-dioxido-3-phenyl[1,2,5]thiadiazolo[3,4-b]pyridin-1(3H)-yl)-N-methylpropan-1-amine] | 60.9 nM
CNCCCN1c2ccccc2N(c2ccc(C)cn2)S1(=O)=O [Example 26, N-methyl-3-[3-(5-methylpyridin-2-yl)-2,2-dioxido-2,1,3-benzothiadiazol-1(3H)-yl]propan-1-amine hydrochloride] | 57.1 nM
CNCCCN1c2ccccc2N(c2ccc(OC)nc2)S1(=O)=O [Example 28, 3-[3-(6-methoxypyridin-3-yl)-2,2-dioxido-2,1,3-benzothiadiazol-1(3H)-yl]-N-methylpropan-1-amine hydrochloride] | 1900 nM
CCc1ccc(N2c3ccccc3N(CCCNC)S2(=O)=O)nc1 [Example 29, 3-[3-(5-ethylpyridin-2-yl)-2,2-dioxido-2,1,3-benzothiadiazol-1(3H)-yl]-N-methylpropan-1-amine hydrochloride] | 434 nM
CNCCCN1c2ccccc2N(c2cc(C)ccn2)S1(=O)=O [Example 30, N-methyl-3-[3-(4-methylpyridin-2-yl)-2,2-dioxido-2,1,3-benzothiadiazol-1(3H)-yl]propan-1-amine hydrochloride] | 15.3 nM
CNCCCN1c2ccccc2N(c2ccccn2)S1(=O)=O [Example 31, 3-(2,2-dioxido-3-pyridin-2-yl-2,1,3-benzothiadiazol-1(3H)-yl)-N-methylpropan-1-amine hydrochloride] | 23.6 nM
CNCCCN1c2ccccc2N(c2cccc(C)n2)S1(=O)=O [Example 32, N-methyl-3-[3-(6-methylpyridin-2-yl)-2,2-dioxido-2,1,3-benzothiadiazol-1(3H)-yl]propan-1-amine hydrochloride] | 192 nM
CNCCCN1c2ccccc2N(c2cccnc2)S1(=O)=O [Example 34, 3-(2,2-dioxido-3-pyridin-3-yl-2,1,3-benzothiadiazol-1(3H)-yl)-N-methylpropan-1-amine hydrochloride] | 85 nM
CNCCCN1c2ccc(Cl)cc2N(c2ccccc2)S1(=O)=O [Example 36, 3-(5-Chloro-2,2-dioxido-3-phenyl-2,1,3-benzothiadiazol-1(3H)-yl)-N-methylpropan-1-amine] | 11.3 nM
CNCCCN1c2cc(Br)ccc2N(c2ccccc2)S1(=O)=O [Example 37, 3-(6-bromo-2,2-dioxido-3-phenyl-2,1,3-benzothiadiazol-1(3H)-yl)-N-methylpropan-1-amine] | 2360 nM
CNCCCN1c2c(F)cccc2N(c2ccccc2)S1(=O)=O [Example 39, 3-(7-fluoro-2,2-dioxido-3-phenyl-2,1,3-benzothiadiazol-1(3H)-yl)-N-methylpropan-1-amine] | 29.3 nM
CNCCCN1c2cc(C)ccc2N(c2ccccc2)S1(=O)=O [Example 40, N-methyl-3-(6-methyl-2,2-dioxido-3-phenyl-2,1,3-benzothiadiazol-1(3H)-yl)propan-1-amine] | 252 nM
